Experiment: Anticancer human tumor 997537-175-T-J1-PDC patient-derived colon adenocarcinoma cell line growth inhibition [POLQ]
Conditions: 997537-175-T-J1-PDC complex spheroid viability, combination with POLQ inhibitors; for IC50: curve of first compound; for viability, T/C: stronger effect = lower value
How it was run: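 Complex spheroid viability model combining PDC tumour cells with endothelial (HUVEC) and MSC stromal cells. Novobiocin, ART-558 or RP6685 were tested singly and in combination with standard and investigational anticancer drugs. Each was titrated in half-log steps from near clinical Cmax, or from 10 microM where Cmax was unknown.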

[1] = second compound 0.0316 µM, first compound 0.0316 µM
[2] = second compound 0.0316 µM, first compound 0.1 µM
[3] = second compound 0.0316 µM, first compound 0.316 µM
[4] = second compound 0.0316 µM, first compound 1 µM
[5] = second compound 0.0316 µM, first compound 3.16 µM
[6] = second compound 0.0316 µM, first compound 10 µM
[7] = second compound 0.1 µM, first compound 0.0316 µM
[8] = second compound 0.1 µM, first compound 0.1 µM
[9] = second compound 0.1 µM, first compound 0.316 µM
[10] = second compound 0.1 µM, first compound 1 µM
[11] = second compound 0.1 µM, first compound 3.16 µM
[12] = second compound 0.1 µM, first compound 10 µM
[13] = second compound 0.316 µM, first compound 0.0316 µM
[14] = second compound 0.316 µM, first compound 0.1 µM
[15] = second compound 0.316 µM, first compound 0.316 µM
[16] = second compound 0.316 µM, first compound 1 µM
[17] = second compound 0.316 µM, first compound 3.16 µM
[18] = second compound 0.316 µM, first compound 10 µM
[19] = second compound 1 µM, first compound 0.0316 µM
[20] = second compound 1 µM, first compound 0.1 µM
[21] = second compound 1 µM, first compound 0.316 µM
[22] = second compound 1 µM, first compound 1 µM
[23] = second compound 1 µM, first compound 3.16 µM
[24] = second compound 1 µM, first compound 10 µM
[25] = second compound 3.16 µM, first compound 0.0316 µM
[26] = second compound 3.16 µM, first compound 0.1 µM
[27] = second compound 3.16 µM, first compound 0.316 µM
[28] = second compound 3.16 µM, first compound 1 µM
[29] = second compound 3.16 µM, first compound 3.16 µM
[30] = second compound 3.16 µM, first compound 10 µM
[31] = second compound 10 µM, first compound 0.0316 µM
[32] = second compound 10 µM, first compound 0.1 µM
[33] = second compound 10 µM, first compound 0.316 µM
[34] = second compound 10 µM, first compound 1 µM
[35] = second compound 10 µM, first compound 3.16 µM
[36] = second compound 10 µM, first compound 10 µM
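Further: luminescence signal used as a surrogate for viable cells; spheroids exposed to drugs for seven days before readout.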

Compound CCc1cc2c(N3CCc4c(cc(Cn5ccnc5)cc4-c4cn(C)nc4C(F)(F)F)C3=O)ccnc2c(OC)n1 + COC1C(OC(N)=O)C(O)C(Oc2ccc3c(O)c(NC(=O)c4ccc(O)c(CC=C(C)C)c4)c(=O)oc3c2C)OC1(C)C has an IC50 (second compound 0.0316 µM) of over 10 µM, an IC50 (second compound 0.1 µM) of over 10 µM and an IC50 (second compound 0.316 µM) of over 10 µM. The IC50 (second compound 1 µM) was over 10 µM, the IC50 (second compound 3.16 µM) was over 10 µM and the IC50 (second compound 10 µM) was over 10 µM. For the same compound, the viability, T/C [1] was 101%, the viability, T/C [2] was 107% and the viability, T/C [3] was 83%. The viability, T/C [4] was 86%, the viability, T/C [5] was 93.8% and the viability, T/C [6] was 57%. It also gave a viability, T/C [7] of 108%, a viability, T/C [8] of 106% and a viability, T/C [9] of 94.6%. For the same compound, the viability, T/C [10] was 98.5%, the viability, T/C [11] was 98.4% and the viability, T/C [12] was 52.3%. It also gave a viability, T/C [13] of 97%, a viability, T/C [14] of 104% and a viability, T/C [15] of 103%. It also gave a viability, T/C [16] of 95.7%, a viability, T/C [17] of 61.9% and a viability, T/C [18] of 52.1%. It also gave a viability, T/C [19] of 113%, a viability, T/C [20] of 83.3% and a viability, T/C [21] of 71.3%. The viability, T/C [22] was 93.8%, the viability, T/C [23] was 69% and the viability, T/C [24] was 52.3%. The viability, T/C [25] was 106%, the viability, T/C [26] was 99% and the viability, T/C [27] was 91.9%. For the same compound, the viability, T/C [28] was 76.5%, the viability, T/C [29] was 70% and the viability, T/C [30] was 64.8%. The viability, T/C [31] was 110%, the viability, T/C [32] was 89.5% and the viability, T/C [33] was 93.2%. The viability, T/C [34] was 92.1%, the viability, T/C [35] was 55.6% and the viability, T/C [36] was 58.6%.

CCc1cc2c(N3CCc4c(cc(Cn5ccnc5)cc4-c4cn(C)nc4C(F)(F)F)C3=O)cc(C)nc2c(OC)n1 + Cc1cccc(N(C)C(=O)C2C(O)CCN2c2nc(C)cc(C(F)(F)F)c2C#N)c1 showed an IC50 (second compound 0.0316 µM) of over 10 µM, an IC50 (second compound 0.1 µM) of over 10 µM and an IC50 (second compound 0.316 µM) of over 10 µM. For the same compound, the IC50 (second compound 1 µM) was over 10 µM, the IC50 (second compound 3.16 µM) was over 10 µM and the IC50 (second compound 10 µM) was over 10 µM. The viability, T/C [1] was 109%, the viability, T/C [2] was 113% and the viability, T/C [3] was 97%. For the same compound, the viability, T/C [4] was 82.8%, the viability, T/C [5] was 87.1% and the viability, T/C [6] was 52.4%. It also gave a viability, T/C [7] of 108%, a viability, T/C [8] of 105% and a viability, T/C [9] of 84.1%. For the same compound, the viability, T/C [10] was 90.6%, the viability, T/C [11] was 75.2% and the viability, T/C [12] was 74.6%. For the same compound, the viability, T/C [13] was 83.5%, the viability, T/C [14] was 103% and the viability, T/C [15] was 82.6%. It also gave a viability, T/C [16] of 84.1%, a viability, T/C [17] of 82.9% and a viability, T/C [18] of 60.9%. The viability, T/C [19] was 91.2%, the viability, T/C [20] was 91.7% and the viability, T/C [21] was 85.9%. For the same compound, the viability, T/C [22] was 86.9%, the viability, T/C [23] was 111% and the viability, T/C [24] was 63.3%. It also gave a viability, T/C [25] of 97.1%, a viability, T/C [26] of 115% and a viability, T/C [27] of 92.2%. For the same compound, the viability, T/C [28] was 82.7%, the viability, T/C [29] was 61.6% and the viability, T/C [30] was 59.5%. The viability, T/C [31] was 102%, the viability, T/C [32] was 91.8% and the viability, T/C [33] was 105%. For the same compound, the viability, T/C [34] was 77.2%, the viability, T/C [35] was 74% and the viability, T/C [36] was 53.6%.

Work on COc1cc(C2c3cc4c(cc3C(OC3OC5COC(C)OC5C(O)C3O)C3COC(=O)C23)OCO4)cc(OC)c1O (stereo unspecified) + Cc1cccc(N(C)C(=O)C2C(O)CCN2c2nc(C)cc(C(F)(F)F)c2C#N)c1 yielded an IC50 (second compound 0.0316 µM) of over 10 µM, an IC50 (second compound 0.1 µM) of over 10 µM and an IC50 (second compound 0.316 µM) of over 10 µM. For the same compound, the IC50 (second compound 1 µM) was over 10 µM, the IC50 (second compound 3.16 µM) was over 10 µM and the IC50 (second compound 10 µM) was over 10 µM. For the same compound, the viability, T/C [1] was 100%, the viability, T/C [2] was 99.4% and the viability, T/C [3] was 95.5%. The viability, T/C [4] was 97.7%, the viability, T/C [5] was 75.2% and the viability, T/C [6] was 68.9%. It also gave a viability, T/C [7] of 96.3%, a viability, T/C [8] of 109% and a viability, T/C [9] of 94.6%. It also gave a viability, T/C [10] of 102%, a viability, T/C [11] of 75.1% and a viability, T/C [12] of 61.9%. It also gave a viability, T/C [13] of 99.8%, a viability, T/C [14] of 102% and a viability, T/C [15] of 96.3%. For the same compound, the viability, T/C [16] was 97.2%, the viability, T/C [17] was 85% and the viability, T/C [18] was 52.8%. It also gave a viability, T/C [19] of 103%, a viability, T/C [20] of 105% and a viability, T/C [21] of 104%. For the same compound, the viability, T/C [22] was 110%, the viability, T/C [23] was 82% and the viability, T/C [24] was 51.2%. It also gave a viability, T/C [25] of 89.5%, a viability, T/C [26] of 86.2% and a viability, T/C [27] of 102%. The viability, T/C [28] was 93.3%, the viability, T/C [29] was 77.3% and the viability, T/C [30] was 69.4%. The viability, T/C [31] was 112%, the viability, T/C [32] was 91.3% and the viability, T/C [33] was 106%. It also gave a viability, T/C [34] of 91.9%, a viability, T/C [35] of 76.3% and a viability, T/C [36] of 64.6%.

From PubChem BioAssay AID1963825 (Molecular Pharmacology Branch, DTP, NCI, 2024)
